Results taken from US8778972B2, “5-pyridin-3-yl-1, 3-dihydro-indol-2-on derivatives and their use as modulators of aldosterone synthase and/or CYP11B1” (Novartis AG, priority 2009, dated 2014).

Key:
aldosterone synthase = molecular target: T1, aldosterone synthase (Homo sapiens, UniProt P19099); assay: Aldosterone cell secretion in NCI-H295R cells (Ang II stimulated, SPA); type: cell-based
T1 construct: host or cells: NCI-H295R
T1 sequence (P19099 25-503): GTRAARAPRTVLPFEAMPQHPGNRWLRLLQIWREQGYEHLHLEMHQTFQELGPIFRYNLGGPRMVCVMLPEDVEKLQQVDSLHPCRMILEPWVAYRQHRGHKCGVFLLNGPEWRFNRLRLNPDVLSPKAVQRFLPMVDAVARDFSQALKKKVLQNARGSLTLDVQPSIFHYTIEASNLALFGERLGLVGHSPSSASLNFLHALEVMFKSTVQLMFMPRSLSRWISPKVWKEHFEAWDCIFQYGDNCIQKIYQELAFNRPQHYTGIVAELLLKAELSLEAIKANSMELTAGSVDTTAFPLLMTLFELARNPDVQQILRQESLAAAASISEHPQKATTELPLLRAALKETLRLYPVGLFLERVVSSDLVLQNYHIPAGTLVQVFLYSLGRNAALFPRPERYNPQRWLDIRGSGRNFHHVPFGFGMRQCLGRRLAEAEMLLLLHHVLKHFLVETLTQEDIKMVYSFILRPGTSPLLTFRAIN
Source text: In particular, the aldosterone synthase inhibitory activities in vitro can be determined by the following assay.
Human adrenocortical carcinoma NCI-H295R cell line was obtained from American Type Culture Collection (Manassas, Va.). Insulin/transferrin/selenium (ITS)-A supplement (100×), DMEM/F-12, antibiotic/antimycotic (100×), and fetal bovine serum (FBS) were purchased from Invitrogen (Carlsbad, Calif.). Anti-mouse PVT scintillation proximity assay (SPA) beads and NBS 96-well plates were obtained from GE Health Sciences (Piscataway, N.J.) and Corning (Acton, Mass.), respectively. Solid black 96-well flat bottom plates were purchased from Costar (Corning, N.Y.). Aldosterone and angiotensin (Ang II) were purchased from Sigma (St. Louis, Mo.). D[1,2,6,7-^3H(N)]aldosterone was acquired from PerkinElmer (Boston, Mass.). Nu-serum was a product of BD Biosciences (Franklin Lakes, N.J.).
For in vitro measurement of aldosterone activity, human adrenocortical carcinoma NCI-H295R cells are seeded in NBS 96-well plates at a density of 25,000 cells/well in 100 μl of a growth medium containing DMEM/F12 supplemented with 10% FCS, 2.5% Nu-serum, 1 μg ITS/ml, and 1× antibiotic/antimycotic. The medium is changed after culturing for 3 days at 37° C. under an atmosphere of 5% CO2/95% air. On the following day, cells are rinsed with 100 μl of phosphate-buffered saline (PBS) and incubated with 100 μl of treatment medium containing 1 μM Ang II and a compound at different concentrations in quadruplicate wells at 37° C. for 24 hr. At the end of incubation, 50 μl of medium is withdrawn from each well for measurement of aldosterone production by an SPA using mouse anti-aldosterone monoclonal antibodies.
Measurement of aldosterone activity can also be performed using a 96-well plate format. Each test sample is incubated with 0.02 μCi of D-[1,2,6,7-^3H(N)]aldosterone and 0.3 μg of anti-aldosterone antibody in PBS containing 0.1% Triton X-100, 0.1% bovine serum albumin, and 12% glycerol in a total volume of 200 μl at room temperature for 1 hr. Anti-mouse PVT SPA beads (50 μl) are then added to each well and incubated overnight at room temperature prior to counting in a Microbeta plate counter. The amount of aldosterone in each sample is calculated by comparing with a standard curve generated using known quantities of the hormone.
(§1) Inhibition of the release of certain steroids can be used as a measure of the respective enzyme inhibition by the added test compounds. The dose-dependent inhibition of enzymic activity by a compound is calculated by means of an inhibition plot which is characterized by an IC50.
The IC50 values for active test compounds are ascertained by a simple linear regression analysis in order to construct inhibition plots without data weighting. The inhibition plot is calculated by fitting a 4-parameter logistic function to the raw data points using the least squares method. The equation of the 4-parameter logistic function is calculated as follows: Y=(d−a)/((1+(x/c)b))+a, where: a=minimum data level, b gradient, I c=ICED, d=maximum data level, x=inhibitor concentration.
The inhibition activity of aldosterone production can also be expressed in percentage inhibition (% inhibition) at a given concentration (e.g. % inhibition at 1 μM), which is the aldosterone level when the cell is treated with the given concentration of a compound of this invention (e.g. concentration of 1 μM) versus the aldosterone excretion when cell is free of the compound of the invention: % inhibition aldosterone production=[(Y′−X′)/Y′]×100 wherein X′ is the level of aldosterone when the cell is treated with a compound of Formula I and Y′ is the level of aldosterone when the cell is free of compound of Formula I.

CYP11B1 = molecular target: T2, CYP11B1 (Homo sapiens, UniProt P15538); assay: Cortisol cell secretion in NCI-H295R cells (CYP11B1 activity); type: cell-based; details: for inhibition at 1 µM: read-out: Cortisol cell secretion (% Inhib. @ 1 μM)
T2 construct: the NCI-H295R cells have Cyp11 B1 (steroid 11 β-hydroxylase); host or cells: NCI-H295R
T2 sequence (P15538 25-503): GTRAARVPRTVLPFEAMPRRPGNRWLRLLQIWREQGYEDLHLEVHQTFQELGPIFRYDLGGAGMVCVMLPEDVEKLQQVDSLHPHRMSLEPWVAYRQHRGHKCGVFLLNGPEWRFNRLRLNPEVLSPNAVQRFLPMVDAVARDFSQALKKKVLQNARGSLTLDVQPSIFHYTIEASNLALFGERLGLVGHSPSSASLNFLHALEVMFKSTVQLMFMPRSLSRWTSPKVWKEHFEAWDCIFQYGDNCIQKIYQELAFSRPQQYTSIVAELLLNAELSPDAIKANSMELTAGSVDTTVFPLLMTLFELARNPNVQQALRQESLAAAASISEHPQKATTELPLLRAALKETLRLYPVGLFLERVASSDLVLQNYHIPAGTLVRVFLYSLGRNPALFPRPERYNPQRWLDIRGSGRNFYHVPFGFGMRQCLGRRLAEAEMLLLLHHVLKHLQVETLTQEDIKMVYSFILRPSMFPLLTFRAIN
Source text: The in vitro inhibitory activities for CYP11B1 can be determined by the following assay.
The cell line NCI-11295R was originally isolated from an adrenocortical carcinoma and has been characterized in the literature through the stimulable secretion of steroid hormones and the presence of the enzymes essential for steroidogenesis. Thus, the NCI-H295R cells have Cyp11 B1 (steroid 11 β-hydroxylase). The cells show the physiological property of zonally undifferentiated human foetal adrenocortical cells which, however, have the capacity to produce the steroid hormones which are formed in the three, phenotypically distinguishable zones in the adult adrenal cortex.
The NCI-H295R cells (American Type Culture Collection, ATCC, Rockville, Md., USA) are grown in Dulbeoco's Modified Eagle' Ham F-12 Medium (DME/F12), which has been supplemented with Ulroser SF Serum (Soprachem, Cergy-Saint-Christophe, France), insulin, transferrin, selenite (I-T-S, Becton Dickinson Biosciences, Franklin lakes, N.J., USA) and antibiotics in 75 cm^2 cell culture vessels at 37° C. and in a 95% air-5% carbon dioxide atmosphere. The cells are subsequently transferred for colony formation into a 24-well incubation vessel. They are cultivated there in DME/F12 medium, which is now supplemented with 0.1% bovine serum instead of Ultroser SF for 24 hours. The experiment is initiated by cultivating the cells in DME/F12 medium which is supplemented with 0.1% bovine serum albumin and test compound, in the presence or absence of cell stimulants, for 72 hours. The test substance is added in a concentration range from 0.2 nanomolar to 20 millimolar. Cell stimulants which can be used are angiotensin II ([…] or 100 nanomolar), potassium ions (16 millimolar), forskolin (10 micromolar) or a combination of two stimulants.
The excretion of aldosterone, cortisol, corticosterone and estradiol/estrone into the culture medium can be detected and quantified by commercially available, specific monoclonal antibodies in radioimmunoassays in accordance with the manufacturer's instructions.
as §1
The inhibition activity of cortisol production (CYP11B1 activity) can also be expressed in percentage inhibition (% inhibition) at a given concentration (e.g. % inhibition at 1 μM), which is the cortisol level when cell is treated with the given concentration of a compound of the invention (e.g. concentration of 1 versus the cortisol excretion when cell is free of the compound of the invention: % inhibition cortisol production=[(Y′−X′)/Y′]×100 wherein X′ is the level of cortisol when the cell is treated with a compound of Formula I; and Y′ is the level of cortisol when the cell is free of compound of Formula

Compound	IC50 (aldosterone synthase) [nM]	inhibition at 1 µM (CYP11B1) [%]	Cortisol cell secretion (% Inhib. @ 1 μM) (CYP11B1) [%]
5-(4-Ethyl-pyridin-3-yl)-1-methyl-1,3-dihydro-indol-2-one [Example 6]	11		83
1-Isopropyl-3-[5-(1-methyl-2-oxo-2,3-dihydro-1H-indol-5-yl)-pyridin-3-ylmethyl]-urea [Example 15]	172		82
5-(5-Ethoxy-pyridin-3-yl)-1-methyl-1,3-dihydro-indol-2-one [#13]	18		51
CN1C(=O)Cc2c1ccc(-c1cccnc1)c2Cl [Example 4]	10	85.5	
CN1C(=O)Cc2cc(-c3cncc(F)c3)ccc21 [Example 2, 5-(5-Fluoro-pyridin-3-yl)-1-methyl-1,3-dihydro-indol-2-one]	5		83
1-Methyl-5-(5-methyl-pyridin-3-yl)-1,3-dihydro-indol-2-one [Example 1]	91.5		29.5
5-[5-(1-Hydroxy-1-methyl-ethyl)-pyridin-3-yl]-1-methyl-1,3-dihydro-indol-2-one [Example 16]	14		87

Second part, the compound after the results:

IC50 (aldosterone synthase) [nM]	inhibition at 1 µM (CYP11B1) [%]	Cortisol cell secretion (% Inhib. @ 1 μM) (CYP11B1) [%]	Compound
4	93		Cc1c(-c2cncc(Br)c2)ccc2c1CC(=O)N2C [Example 10]
15		89	CC(C)C(=O)Nc1cncc(-c2ccc3c(c2)CC(=O)N3C)c1 [Example 9, N-[5-(1-Methyl-2-oxo-2,3-dihydro-1H-indol-5-yl)-pyridin-3-yl]-isobutyramide]
58		78	CN1C(=O)Cc2cc(-c3cncc(C(N)=O)c3)ccc21 [Example 5, 5-(1-Methyl-2-oxo-2,3-dihydro-1H-indol-5-yl)-nicotinamide]
20	83.5		CCOc1cncc(-c2ccc3c(c2)CC(=O)N3C)c1 [Example 13]
36	84		COc1c(-c2cccnc2)ccc2c1CC(=O)N2C [Example 8]
408			Cn1c(=O)n(C)c2cc(-c3cccnc3)ccc21 [Example 18]
18	60		CN1C(=O)Cc2cc(-c3cncc(-c4cccnc4)c3)ccc21 [Example 14]
2	79		CN1C(=O)Cc2cc(-c3cncc(C4CC4)c3)ccc21 [Example 12]
472			Cn1c(=O)oc2cc(-c3cccnc3)ccc21 [Example 19]
